What all share (assay): MIC, liquid medium test tube series dilution test
Test [1] deals with Staph. aureus 133. Type of test: cell-based, Staphylococcus aureus. The note with it: Staph. aureus 133, 24 hours, 37°C. The procedure: (§1) The chemotherapeutic activity of the new penicillins was tested in vivo and in vitro. The in vitro inhibition values (MIC = minimum inhibition concentration (see Tables 1 and 2) were determined in a liquid medium in the test tube series dilution test, with readings being taken after 24 hours' incubation at 37°C. The MIC is indicated by the non-turbid test tube in the dilution series. A complete medium of the following composition was used as the nutrient medium:
(§2) The figures quoted in the Examples for the effectiveness against certain bacteria (units/ml) are minimum inhibitory concentrations in the test tube series dilution test after 24 hours' incubation.

Test [2] concerns Psdm. aerug. Walter. Format: cell-based, Pseudomonas aerug. Particulars: 24 hours, 37°C. As to the method:
as §1, §2

In test [3] the test system is Proteus vulg. 3400. Type of test: cell-based, Proteus vulgaris. The note with it: Proteus vulg. 3400, 24 hours, 37°C. As to the method:
as §1, §2

The test system of test [4] is E. coli C 165. Format: cell-based. The note with it: E. coli C 165, 24 hours, 37°C. The procedure:
as §1, §2

Test [5] deals with E. coli A 261. Type of test: cell-based. Particulars: E. coli A 261, 24 hours, 37°C. The procedure:
as §1, §2

Test [6] concerns Klebsiella 63. Format: cell-based. Particulars: Klebsiella 63, 24 hours, 37°C. As to the method:
as §1, §2

The subject of test [7] is Streptoc. faec. ATCC 9790. Type of test: cell-based. The note with it: Strep. faec. (Enterococcus) ATCC 9790, 24 hours, 37°C. As to the method: as §1, §2
In test [8] the test system is Proteus vulg. 1017. Type of test: cell-based, Proteus vulgaris. Particulars: Proteus vulg. 1017, 24 hours, 37°C. As to the method: as §1, §2

A value given as a limit tells only on which side of the number the result lay.

The results in this text go back to patent publication US3974140A, “Ureidoacetamido-penicillins” (Bayer Aktiengesellschaft, priority 1970, dated 1976).

On to `CN(C(=O)CCCCl)C(=O)NC(C(=O)N[C@@H]1C(=O)N2[C@@H]1SC(C)(C)[C@@H]2C(=O)O)c1cccs1` (stereo partly drawn) [Example 5, Sodium D,L-(3-γ-chlorobutyryl-3-methyl-ureido)-(2-thienyl)methylpenicillin], for which the MIC in test [1] is below 0.8 units/ml; in test [2], 20-100 units/ml; in test [3] it was 20-100 units/ml; in test [4], 4-20 units/ml; in test [5] it was 100-500 units/ml; in test [6] it was 20-100 units/ml. In addition, in test [7], the MIC was 100-500 units/ml.
For the compound `COC(=O)N(C)C(=O)NC(C(=O)N[C@@H]1C(=O)N2[C@@H]1SC(C)(C)[C@@H]2C(=O)O)c1cccs1` (stereo partly drawn) [Example 20, Sodium D,L-α-(3-methoxycarbonyl-3-methyl-ureido)-2-thienylmethylpenicillin], the MIC in test [1] is on record as below 0.8 units/ml; in test [2] it was 100-500 units/ml; in test [3] it was 100-500 units/ml; in test [4], 20-100 units/ml; in test [5], above 500 units/ml; in test [6] it was 20-100 units/ml. Besides, the MIC in test [7] is 20-100 units/ml.
Take `C=CCN(C(=O)NC(C(=O)N[C@@H]1C(=O)N2[C@@H]1SC(C)(C)[C@@H]2C(=O)O)c1cccs1)C(=O)c1ccccc1` (stereo partly drawn) [Example 21, Sodium D,L-α-(3-benzoyl-3-allyl-ureido)-2-thienylmethylpenicillin]: the MIC is reported as below 0.8 units/ml in test [1]; 100-500 units/ml in test [2]; 20-100 units/ml in test [3]; 20-100 units/ml in test [4]; above 500 units/ml in test [5]; 20-100 units/ml in test [6]. Further, the MIC in test [7] was 100-500 units/ml.
With `CSc1ccc(C(NC(=O)N(C)C(=O)c2ccccc2)C(=O)N[C@@H]2C(=O)N3[C@@H]2SC(C)(C)[C@@H]3C(=O)O)cc1` (stereo partly drawn) [Example 33, Sodium α-(3-benzoyl-3-methyl-ureido)-4-methylthiobenzylpenicillin], the MIC in test [1] was below 0.8 units/ml; in test [2] it was 4-20 units/ml; in test [8], 4-20 units/ml; in test [4] it was 4-20 units/ml; in test [5], 100-500 units/ml; in test [6], 4-20 units/ml. In addition, the MIC in test [7] is recorded as 20-100 units/ml.
As to `CN(C(=O)CCCl)C(=O)NC(C(=O)N[C@@H]1C(=O)N2[C@@H]1SC(C)(C)[C@@H]2C(=O)O)C1CC=CCC1` (stereo partly drawn) [Example 36, Sodium α-(3-β-chloropropionyl-3-methyl-ureido)-cyclohex-3-enylmethylpenicillin], the MIC in test [1] is 4-20 units/ml; in test [2] it was above 500 units/ml; in test [8], above 500 units/ml; in test [4] it was 100-500 units/ml; in test [5], above 500 units/ml; in test [6], above 500 units/ml. Besides, the MIC in test [7] is recorded as 100-500 units/ml.
For `CC(=O)N(Cc1ccccc1)C(=O)N[C@@H](C(=O)N[C@@H]1C(=O)N2[C@@H]1SC(C)(C)[C@@H]2C(=O)O)c1ccccc1` [Example 87], the MIC in test [1] was below 0.8 units/ml.
Still for that read-out and setting: in the case of `CN(C(=O)N[C@@H](C(=O)N[C@@H]1C(=O)N2[C@@H]1SC(C)(C)[C@@H]2C(=O)O)c1ccccc1)C(=O)c1ccco1` [Example 91, Sodium D(-)-α-(3-[2-furoyl]-3-methyl-ureido)-benzylpenicillin] it was below 0.8 units/ml.
As for `CCCN(C(=O)N[C@@H](C(=O)N[C@@H]1C(=O)N2[C@@H]1SC(C)(C)[C@@H]2C(=O)O)c1ccccc1)C(=O)c1ccco1` [Example 92 B, Sodium D (-)-α-(3-[2-furoyl]-3-n-propyl-ureido)-benzylpenicillin], the MIC in test [1] is below 0.8 units/ml; in test [5], above 500 units/ml.
For `CCN(C(=O)N[C@@H](C(=O)N[C@@H]1C(=O)N2[C@@H]1SC(C)(C)[C@@H]2C(=O)O)c1ccccc1)C(=O)c1ccco1` [Example 93 B, Sodium D(-)-α-(3-[2-furoyl]-3-ethyl-ureido)-benzylpenicillin], in that order: below 0.8 units/ml and above 500 units/ml.
As to `CC1(C)S[C@@H]2[C@H](NC(=O)[C@H](NC(=O)N(C(=O)c3ccccc3)c3ccccc3)c3ccccc3)C(=O)N2[C@H]1C(=O)O` [Example 99 B, Sodium D(-)-α-(3-benzoyl-3-phenyl-ureido)-benzylpenicillin], the MIC is recorded as below 0.8 units/ml in test [1]; 100-500 units/ml in test [2]; around 500 units/ml in test [8]; 20-100 units/ml in test [4]; above 500 units/ml in test [5]; above 500 units/ml in test [6]. Further, the MIC in test [7] is 100-500 units/ml.
Take `CC1(C)S[C@@H]2[C@H](NC(=O)[C@H](NC(=O)N3CCCCCC3=O)c3ccccc3)C(=O)N2[C@H]1C(=O)O` [Example 101 B, Sodium D(-)-α-(hexahydroazepin-2-on-1-yl-carbonyl-amino)-benzylpenicillin]: the MIC in test [1] is listed as below 0.8 units/ml; in test [2], 100-500 units/ml; in test [8] it was 100-500 units/ml; in test [4] it was 20-100 units/ml; in test [5] it was above 500 units/ml; in test [6], 100-500 units/ml. The MIC in test [7] is reported as around 20 units/ml.
As to `CC1(C)S[C@@H]2[C@H](NC(=O)[C@H](NC(=O)N3CCCC3=O)c3ccccc3)C(=O)N2[C@H]1C(=O)O` [Example 102, Sodium D(-)-β-(pyrrolid-2-on-1-yl-carbonylamino)-benzylpenicillin], the MIC is below 0.8 units/ml in test [1] and above 500 units/ml in test [5].
For `CN(C=O)C(=O)N[C@@H](C(=O)N[C@@H]1C(=O)N2[C@@H]1SC(C)(C)[C@@H]2C(=O)O)c1ccccc1` [Example 103, Sodium D(-)-β-(3-formyl-3-methyl-ureido)-benzylpenicillin], the MIC in test [1] is recorded as below 0.8 units/ml; in test [8] it was 100-500 units/ml; in test [4] it was 4-20 units/ml; in test [5], above 500 units/ml; in test [7], 20-100 units/ml.
Regarding `CCCN(C(=O)N[C@@H](C(=O)N[C@@H]1C(=O)N2[C@@H]1SC(C)(C)[C@@H]2C(=O)O)c1ccccc1)C(=O)c1ccc(OC)c([N+](=O)[O-])c1` [Example 109, Sodium D(-)-α-(3-[3-nitro-4-methoxybenzoyl]-3-n-propyl-uredio)-benzylpenicillin], the MIC in test [1] was 0.8 units/ml; in test [2], 50-100 units/ml; in test [8], 20-100 units/ml; in test [4], 4-20 units/ml; in test [5], above 500 units/ml; in test [6], 100-500 units/ml. In addition, in test [7], the MIC was 4-20 units/ml.
Turning to “Sodium D(-)-α-(3-[2-furoyl]-3-phenyl-ureido)-benzylpenicillin [Example 105 B]”, the MIC in test [1] is on record as below 0.8 units/ml; in test [2], above 500 units/ml; in test [8], above 500 units/ml; in test [4], 4-20 units/ml; in test [5] it was above 500 units/ml; in test [6] it was 100-500 units/ml. Moreover, the MIC in test [7] is 20-100 units/ml.
